# What was measured:
# [1] = tested on: human breast cancer cells (Bacp-37); experiment: Activities against transplanted human breast cancer tumor in mice; format: in vivo, Balb/c-nu/nu nude mice; details: Bacp-37 xenograft, 20 days after administration; for Inhibition rate (%): tumor weight vs control group
# Description: (§1) Balb/c-nu/nu nude mice (5 to 7 weeks old, 16-20 g) were randomly grouped. The mice were inoculated subcutaneously with 0.1 ml of a cell suspension containing 10^6 human breast cancer cells (Bacp-37). Upon the tumor volume having reached 50 mm^3, the mice were intravenously injected with a dose of a conjugate or a free drug. Twenty days after the administration, the animals were sacrificed and their body weight and tumor weight were measured.
# [2] = tested on: human liver cancer cells (HepG2); experiment: Activities against transplanted human liver cancer tumor in mice; format: in vivo, Balb/c-nu/nu nude mice; details: HepG2 xenograft, 20 days after administration; for Inhibition rate (%): tumor weight vs control group
# Description: as §1, with “liver” for “breast”, “(HepG2).” for “(Bacp-37).”, “measured. Tumor inhibition rate was calculated according to the following equation: […]” for “measured.”
# [3] = single i.v. dose 100 mg/kg (as free drug)
compound,measurement,setting,value
CC(=O)O[C@@]12CO[C@@H]1C[C@H](O)[C@@]1(C)C(=O)[C@H](O)C3=C(C)[C@@H](OC(=O)[C@H](O)[C@@H](NC(=O)OC(C)(C)C)c4ccccc4)C[C@@](O)([C@@H](OC(=O)c4ccccc4)[C@H]21)C3(C)C [Docetaxel],Change of body weight (g),[1]; i.v. 100 mg/kg,+6.29 g
same,Weight of tumor,[1]; i.v. 100 mg/kg,0.35 g
same,Number of animals (final/initial),[1]; single i.v. dose 100 mg/kg,6/6
same,Change of body weight (g),[2]; i.v. 100 mg/kg (as free drug),+6.92 g
same,Weight of tumor,[2]; i.v. 100 mg/kg (as free drug),0.56 g
same,Inhibition rate (%),[2]; i.v. 100 mg/kg (as free drug),55.56%
same,Number of animals (final/initial),[2]; [3],6/6
[N-acetyl-poly-(L)-glutamic acid]-[5′-O-(L-alanyl)-gemcitabine] conjugate [Compound I8],Weight of tumor,[1]; i.v. 5 mg/kg,0.39 g
same,Inhibition rate (%),[1]; i.v. 5 mg/kg,71.73%
[N-acetyl-poly-(L)-glutamic acid]-[2′-O-(L-valyl)-paclitaxel] conjugate [Compound I22],Weight of tumor,[1]; i.v. 100 mg/kg,0.41 g
same,Inhibition rate (%),[1]; i.v. 100 mg/kg,70.29%
CC(=O)O[C@H]1C(=O)[C@@]2(C)[C@H]([C@H](OC(=O)c3ccccc3)[C@]3(O)C[C@H](OC(=O)[C@H](O)[C@@H](NC(=O)c4ccccc4)c4ccccc4)C(C)=C1C3(C)C)[C@]1(OC(C)=O)CO[C@@H]1C[C@@H]2O [Paclitaxel],Change of body weight (g),[1]; i.v. 100 mg/kg,+5.91 g
same,Weight of tumor,[1]; i.v. 100 mg/kg,0.48 g
same,Inhibition rate (%),[1]; i.v. 100 mg/kg,65.22%
same,Number of animals (final/initial),[1]; single i.v. dose 100 mg/kg,5/6
same,Change of body weight (g),[2]; i.v. 100 mg/kg (as free drug),+5.38 g
same,Weight of tumor,[2]; i.v. 100 mg/kg (as free drug),0.54 g
same,Inhibition rate (%),[2]; i.v. 100 mg/kg (as free drug),57.14%
same,Number of animals (final/initial),[2]; [3],5/6
[N-acetyl-poly-(L)-glutamic acid]-[2′-O-(glycyl)-docetaxel] conjugate [Compound I6],Weight of tumor,[1]; i.v. 100 mg/kg,0.47 g
same,Inhibition rate (%),[1]; i.v. 100 mg/kg,65.94%
[N-acetyl-poly-(L)-glutamic acid]-[2′-O-(L-isoleucyl)-docetaxel] conjugate [Compound I18],Weight of tumor,[1]; i.v. 100 mg/kg,0.73 g
same,Inhibition rate (%),[1]; i.v. 100 mg/kg,47.10%
Nc1ccn([C@@H]2O[C@H](CO)[C@@H](O)C2(F)F)c(=O)n1 [Gemcitabine],Change of body weight (g),[1]; i.v. 5 mg/kg,+5.08 g
same,Weight of tumor,[1]; i.v. 5 mg/kg,0.51 g
same,Inhibition rate (%),[1]; i.v. 5 mg/kg,63.08%
same,Number of animals (final/initial),[1]; single i.v. dose 5 mg/kg,5/6
same,Change of body weight (g),[2]; i.v. 5 mg/kg (as free drug),+4.77 g
same,Weight of tumor,[2]; i.v. 5 mg/kg (as free drug),0.45 g
same,Inhibition rate (%),[2]; i.v. 5 mg/kg (as free drug),64.28%
same,Number of animals (final/initial),[2]; single i.v. dose 5 mg/kg (as free drug),4/6
[poly-(L)-glutamic acid]-[5′-O-(glycyl)-gemcitabine] conjugate [Compound I1],Weight of tumor,[1]; i.v. 5 mg/kg,0.46 g
same,Inhibition rate (%),[1]; i.v. 5 mg/kg,71.01%
[N-acetyl-poly-(L)-glutamic acid]-[2′-O-(L-alanyl)-docetaxel] conjugate [Compound I12],Weight of tumor,[1]; i.v. 100 mg/kg,0.34 g
same,Inhibition rate (%),[1]; i.v. 100 mg/kg,75.36%
[N-acetyl-poly-(L)-glutamic acid]-[2′-O-(glycyl)-paclitaxel] conjugate [Compound I4],Weight of tumor,[1]; i.v. 100 mg/kg,0.42 g
same,Inhibition rate (%),[1]; i.v. 100 mg/kg,69.56%
[N-acetyl-poly-(L)-glutamic acid]-[2′-O-(L-alanyl)-paclitaxel] conjugate [Compound I10],Weight of tumor,[1]; i.v. 100 mg/kg,0.29 g
same,Inhibition rate (%),[1]; i.v. 100 mg/kg,78.99%

# Reference: patent publication US20120041167A1, “POLY(GLUTAMIC ACID)-DRUG CONJUGATE WITH AN AMINO ACID AS A LINKER” (Institute of Pharmacology and Toxicology Academy of …, priority 2006, published 2012)
